According to patent US20030055046A1, “Novel pyrido cyclohexenyl phenyl carboxamides tocolytic oxytocin receptor antagonists” (Wyeth, priority 2001, published 2003):
Where a name gives a salt, the structure may show the parent alone.

Molecular target: T1, human vasopressin V2 receptor subtype (Homo sapiens, UniProt P30518)
T1 construct: host or cells: CHO cells, stably transfected (pZeoSV vector)
Assay: Vasopressin binding in CHO cell membranes expressing human vasopressin V2 subtype receptors
Conditions: 100 nM, [3H]arginine vasopressin
From the text: Vasopressin Binding in Chinese Hamster Ovary Cell Membranes Expressing Human Vasopressin V2 Subtype Receptors
Chinese Hamster Ovary (CHO) cells stably transfected with the human V2 subtype receptors were obtained from M. Thibonnier, Case Western Reserve University School of Medicine, Cleveland, Ohio.
A. Passaging and Amplification of Cells:
CHO cells transfected with the human vasopressin V2 subtype receptors obtained from M. Thibonnier (pZeoSV vector) are allowed to grow to confluency (approx. >90%) in T-150 flasks under sterile conditions, in a cell culture medium consisting of F-12 Nutrient Mixture (HAM) with L-glutamine (Gibco Cat.# 11765-054) containing 15 mM HEPES (Gibco Cat.# 15630-080), 1% antibiotic/antimycotic (add 5 mL 100×, Gibco Cat.# 15240-062 per 500 mL F-12), 250 μg/mL Zeocin (add 1.25 mL of 100 mg/mL Invitrogen R-250-01 per 500 mL F-12) and 10% Fetal Bovine Serum (Qualified, heat inactivated, Gibco Cat.# 16140-063). The medium is removed by aspiration and the cells washed with 10 mL of Hank's Balanced Salt solution (Gibco Cat.# 14175-095). The salt solution is removed by aspiration and the cells trypsinized with 5 mL of trypsin-EDTA (0.05% trypsin, 0.53 mM EDTA-4Na, Gibco Cat.# 25300-070) for 1 min. The trypsin is removed by aspiration and the cells dislodged by tapping. Cell Culture medium (e.g. 30 mL for 1:30 split) is immediately added and mixed well to inactivate trypsin. 1 mL of detached cells is added to new culture flasks containing fresh Cell Culture medium (e.g. into 25 mL per T-150 flask), and mixed gently. The cells are incubated at 37° C. in 5% CO2. The medium is changed at 3 to 4 day interval (or as appropriate). The cells grow to confluency (approx. >75%-95%) within 7-8 days. All steps are done under sterile conditions.
The cells are washed twice gently with Hank's Balanced Salt solution (e.g. use 10 mL per T-150 flask). The excess solution is removed and the cells bathed for 15-30 min. in an enzyme-free Cell Dissociation Buffer (e.g. use 8 mL Hank's Based, Gibco Cat.# 13150-016 per T-150 flask) until cells are loosened. The contents are transferred to centrifuge tubes (50 mL) kept in an ice bath. All subsequent steps are done at 4° C. The tubes are centrifuged at 300×g for 15 min (1380 rpm on SORVAL, Model RT6000D, using the rotor for 50 mL tubes). The supernatant is discarded and the cells suspended in homogeneizing buffer(10 mM Tris-HCl containing 0.25 M sucrose and 1 mM EDTA, pH 7.4) ensuring that the volume of the buffer is about ten times the volume of the cell pellet. The cells are pooled into a centrifuge tube (50 mL) and homogenized with Polytron at setting 6 for 10 sec. The homogenate is transferred into a Potter-Elvjehm homogeneizer and homogenized with 3 strokes. The homogenate is centrifuged at 1500×g for 60 min at 4° C. (3100 rpm using SORVAL, model RT6000D, using the rotor for 50 mL tubes). The pellet is discarded. The supernatant is centrifuged at 100,000×g for 60 min. at 4° C. (Beckman L8-80M ultracentrifuge; spin at 37,500 rpm with rotor type 70 Ti for 50 mL tubes; 38,000 rpm with type 80Ti for 15 mL tubes; or 35,800 rpm with rotor type 45Ti). The supernatant is discarded and the pellet suspended in 3 to 4 mL of Tris buffer (50 mM TRIS-HCl, pH 7.4). The protein content is estimated by the Bradford or Lowry method. The volume of the membrane suspension is adjusted with the membrane buffer (50 mM Tris-HCl containing 0.1% BSA and 0.1 mM PMSF) to give 3.0 mg/mL (or as appropriate) of protein. The membranes are aliquoted and stored at −70° C.
C. Radioligand Binding Assay:
In wells of a 96-well format microtiter plate, is added 90, 110 or 130 μL (to make up a final volume of 200 μL) of assay buffer containing 50 mM of Tris-HCl (pH 7.4), […], 1 mg % aprotinin, 1 mg % leupeptin, 2 mg % 1,10-phenanthroline, 10 mg % trypsin inhibitor, and 0.1 mM PMSF. The inhibitors are added on the day of the experiment. […]

T1 sequence (P30518 whole entry): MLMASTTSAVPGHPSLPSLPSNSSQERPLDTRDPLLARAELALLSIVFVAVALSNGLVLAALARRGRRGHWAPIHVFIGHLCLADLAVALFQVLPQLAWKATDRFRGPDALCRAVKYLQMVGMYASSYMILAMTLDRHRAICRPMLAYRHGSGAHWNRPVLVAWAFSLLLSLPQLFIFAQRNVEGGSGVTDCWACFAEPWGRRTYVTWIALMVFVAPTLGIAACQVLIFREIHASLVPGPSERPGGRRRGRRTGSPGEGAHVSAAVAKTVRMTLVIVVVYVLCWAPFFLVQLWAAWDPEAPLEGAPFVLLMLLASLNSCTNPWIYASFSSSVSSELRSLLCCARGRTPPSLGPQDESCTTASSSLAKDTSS

Row | SMILES | V2 % inhibition @ 100 nM [%]
1 | Cc1cc(C(=O)N2Cc3ccc(C(=O)NCc4cccnc4)n3Cc3ccccc32)ccc1C1=CCCCC1 [Example 6, 10-[4-(1-Cyclohex-1-en-1-yl)-3-methylbenzoyl]-N-(3-pyridinylmethyl)-10,11-dihydro-5H-pyrrolo[2,1-c][1 ,4]benzodiazepine-3-carboxamide] | 3
2 | CC1=C(c2ccc(C(=O)N3Cc4ccc(C(=O)N(C)Cc5cccnc5)n4Cc4ccccc43)cc2C)CCC[C@H]1O.O=C(O)C(O)C(O)C(=O)O [Example 4, 10-[4-((3R)-3-Hydroxy-2-methyl-cyclohex-1-en-1-yl)-3-methyl-benzoyl]-10,11-dihydro-5H-pyrrolo[2,1-c][1,4]benzodiazepine-3-carboxylic acid methyl-pyridin-3-yl methyl-amide L-(+)-tartaric acid salt] | 20
3 | Cc1cc(C(=O)N2Cc3ccc(C(=O)N4CCN(c5ccccn5)CC4)n3Cc3ccccc32)ccc1C1=CCCCC1 [Example 9, {10-[4-(1-Cyclohex-1-en-1-yl)-3-methylbenzoyl]-10,11-dihydro-5H-pyrrolo[2,1-c][1,4]benzodiazepin-3-yl}[4-(2-pyridinyl)-1-piperazinyl]methanone] | 21
4 | Cc1cc(C(=O)N2Cc3ccc(C(=O)NCCc4ccccn4)n3Cc3ccccc32)ccc1C1=CCCCC1 [Example 7, 10-[4-(1-Cyclohex-1-en-1-yl)-3-methylbenzoyl]-N-[2-(2-pyridinyl)ethyl]-10,11-pyrrolo[2,1-c][1,4]benzodiazepine-3-carboxamide] | 6
5 | Cc1cc(C(=O)N2Cc3ccc(C(=O)N(C)Cc4cccnc4)n3Cc3ccccc32)ccc1C1=CCCCC1 [Example 11, 10-[4-(1-Cyclohex-1-en-1-yl)-3-methylbenzoyl]-N-methyl-N-(3-pyridinylmethyl)-10,11-dihydro-5H-pyrrolo[2,1-c][1,4]benzodiazepine-3-carboxamide] | 17
6 | CC1=C(c2ccc(C(=O)N3Cc4ccc(C(=O)N(C)Cc5cccnc5)n4Cc4ccccc43)cc2C)CCC[C@H]1O [Example 3, 10-[4-((3R)-3-Hydroxy-2-methyl-cyclohex-1-en-1-yl)-3-methyl-benzoyl]-10,11-dihydro-5H-pyrrolo[2,1-c][1,4]benzodiazepine-3-carboxylic acid methyl-pyridin-3-yl methyl-amide] | 7
7 | Cc1cc(C(=O)N2Cc3ccc(C(=O)N(C)CCc4ccccn4)n3Cc3ccccc32)ccc1C1=CCCCC1 [Example 8, 10-[4-(1-Cyclohex-1-en-1-yl)-3-methylbenzoyl]-N-methyl-N-[2-(2-pyridinyl)ethyl]-10,11-dihydro-5H-pyrrolo[2,1-c][1 ,4]benzodiazepine-3-carboxamide] | 16
8 | Cc1cc(C(=O)N2Cc3ccc(C(=O)N(C)CCc4ccncc4)n3Cc3ccccc32)ccc1C1=CCCCC1 [Example 13, 10-[4-(1-Cyclohex-1-en-1-yl)-3-methylbenzoyl]-N-methyl-N-[2-(4-pyridinyl)ethyl]-10,11-dihydro-5H-pyrrolo[2,1-c][1,4]benzodiazepine-3-carboxamide] | 12
9 | Cc1cc(C(=O)N2Cc3ccc(C(=O)NCc4ccncc4)n3Cc3ccccc32)ccc1C1=CCCCC1 [Example 10, 10-[4-(1-Cyclohex-1-en-1-yl)-3-methylbenzoyl]-N-(4-pyridinylmethyl)-10,11-dihydro-5H-pyrrolo[2,1-c][1,4]benzodiazepine-3-carboxamide] | 15
10 | Cc1cc(C(=O)N2Cc3ccc(C(=O)N4CCN(c5ccncc5)CC4)n3Cc3ccccc32)ccc1C1=CCCCC1 [Example 12, {10-[4-(1-Cyclohex-1-en-1-yl)-3-methylbenzoyl]-10,11-dihydro-5H-pyrrolo[2,1--c][1,4]benzodiazepin-3-yl}[4-(4-pyridinyl)-1-piperazinyl]methanone] | 21
11 | Cc1cc(C(=O)N2Cc3ccc(C(=O)NCc4ccccn4)n3Cc3ccccc32)ccc1C1=CCCCC1 [Example 5, 10-[4-(1-Cyclohex-1-en-1-yl)-3-methylbenzoyl]-N-(2-pyridinylmethyl)-10,11-dihydro-5H-pyrrolo[2,1-c][1,4]benzodiazepine-3-carboxamide] | 12

Same assay, conditions: [3H]arginine vasopressin, value in parentheses

Row | SMILES | IC50 [nM]
12 | COc1cc(C2=CCCCC2)c(Cl)cc1C(=O)N1Cc2ccc(C(=O)N(C)Cc3cccnc3)n2Cc2ccccc21 [Example 1, 10-(5-Chloro-4-cyclohex-1-en-1-yl-2-me3thoxybenzoyl)-N-methyl-N-(pyridin-3-ylmethyl)-10,11-dihydro-5H-pyrrolo [2,1-c][1,4]benzodiazepine-3-carboxamide] | 1190
13 | COc1cc(C2=CCCCC2)c(Cl)cc1C(=O)N1Cc2ccc(C(=O)N(C)Cc3cccnc3)n2Cc2ccccc21 [Example 2, 10-(5-Chloro-4-cyclohex-1-en-1-yl-2-methoxybenzoyl)-N-methyl-N-(pyridin-3-ylmethyl)-10,11-dihydro-5H-pyrrolo[2,1-c][1,4]benzodiazepine-3-carboxamide L-(+)-tartaric acid salt hemihydrate] | 1420

Test system: not given
Assay: not given
Conditions: not given

Row | SMILES | melting point [°C]
14 | COc1cc(C2=CCCCC2)c(Cl)cc1C(=O)N1Cc2ccc(C(=O)N(C)Cc3cccnc3)n2Cc2ccccc21 [Example 1, 10-(5-Chloro-4-cyclohex-1-en-1-yl-2-me3thoxybenzoyl)-N-methyl-N-(pyridin-3-ylmethyl)-10,11-dihydro-5H-pyrrolo [2,1-c][1,4]benzodiazepine-3-carboxamide] | 178 to 179
